From patent publication US20210322324A1, “METHOD FOR TREATING PRIMARY SCLEROSING CHOLANGITIS” (AVOLYNT, priority 2018, published 2021)
Entries after “also recorded” stand apart in the source; their conditions may differ.

Tests used:
[1] = test system: TIA mice; experiment: TIA mouse model of primary sclerosing cholangitis, liver histology after remogliflozin etabonate-formulated diet; type: in vivo
Source text: The following Examples describe the utilization of a murine model of […] (“PSC”) to assess the effectiveness of a treatment regimen based on the oral administration of remogliflozin etabonate. The murine PSC model is based on mice that are deficient for the expression of tumor necrosis factor alpha (“TNFα”), interleukin 10 (“IL-10”), and activation-induced cytidine deaminase (“AICDA”). As the mice are deficient in TNF, IL-10, and AICDA, they are referred to, herein, as “TIA” mice.
Moreover, as AICDA is required for immunoglobulin (“Ig”) class switching, TIA mice lack IgG and IgA, a phenotype analogous to humans with hyper-IgM syndrome. Therefore, with the combination of AICDA deficiency with the risk factors associated with TNFα and IL-10 deficiencies, TIA mice also develop liver and biliary inflammation reminiscent of PSC symptoms in humans. Accordingly, the TIA model is useful for investigating mechanisms that act early in PSC pathogenesis, as well as treatments that can prevent progression to PSC.
Example 1. Orally-administered remogliflozin etabonate reduces inflammatory cell infiltration, bile ductular proliferation, and interface hepatitis in TIA mice. TIA mice were created by first breeding TNFα knock out (“KO”) C57BL/6 mice, (strain B6.129S-Tnf^tm1Gkl/J, stock #005540, Jackson Laboratories, Bar Harbor, Me.) with IL-10 KO mice (strain B10.129P2(B6)-IL10^tm1Cgn/J, Stock No. 002251, Jackson Laboratories) to produce a population of mice that were deficient in TNFα and IL-10. Because mice with a TNFα−/− and IL10−/− genotype spontaneously develop inflammatory bowel disease (“IBD”) (Hale 2012), a condition associated with poor breeding success (Nagy 2016), the mice needed for further breeding to generate an AICDA population, were generated by breeding offspring with a TNFα and IL10+/− genotype with AICDA−/− mice, which were obtained from Dr. Tasuku Honjo (Muramatsu 2000)), to produce a population of TNFα−/−, IL10−/−, and AICDA+/−(“TI-hetA”) males and females. In turn, TI-hetA pairs were bred to generate populations that were 25% TIA mice, and 50% non-colitis-susceptible TI-hetA littermates that could be used as control populations. All populations were exposed to the same environment from birth. The mice were housed in polycarbonate micro-isolator cages, in individually ventilated racks, under barrier conditions that excluded all known pathogens, including Helicobacter pylori and Norovirus. Mice had ad libitum access to water, and to a standard diet (PicoLab Mouse Diet 20/5058, LabDiet, St. Louis, Mo., USA).
At four (4) weeks of age, TIA (40) and TI-hetA (22) mice were randomized into experimental groups that received either a standard diet (20 TIA and 12 het), or a standard diet formulated 0.03% remogliflozin etabonate (20 TIA and 10 het) (Avolynt Inc., USA). The mice were maintained on this diet for seven (7) weeks. Body weights were obtained three (3) times, weekly, to assess the general health of mice, and to track the development of inflammatory bowel disease (IBD). Glycosuria in the experimental groups was assessed by applying freshly voided urine directly to the glucose test patch on an Accutest® URS-10 urinary reagent test strips (Jant Pharmaceutical Corp., Encino, Calif., USA). Mice were humanely euthanized before reaching the experimental endpoint, of eleven (11) weeks of age, if they lost >15% body weight, or developed rectal prolapse.
To characterize biliary lesions in TIA mice at the end of the 7 week treatment period, liver tissue was obtained from the remogliflozin-treated, and untreated groups, for histologic examination. The excised liver tissue was fixed in Carnoy's fixative solution, and processed into paraffin blocks. The paraffin blocks were sectioned, and stained with Hematoxylin and eosin (H&E) for pathologic analysis. The H&E-stained sections were scored by an American Board of Pathology-certified pathologist. […]

[2] = Plasma remogliflozin after oral compressed IR tablet of remogliflozin etabonate; type: in vivo; conditions: 350 mg remogliflozin etabonate, after 3 hrs
Source text: Oral dosage forms according to the invention are typically tablets or capsules. Tablets can be obtained by direct compression of the mixed components of a dosage form, including an effective dosage amount of remogliflozin etabonate, and selected excipients, like cellulose derivatives, metacrylates, chitosan, carboxymethylstarch (CMS), or mixtures thereof. For example, a compressed tablet according to the invention, can be prepared by granulating remogliflozin etabonate, microcrystalline cellulose and croscarmellose sodium with a water and povidone solution. The resulting granules are dried, milled, and then blended with mannitol, microcrystalline cellulose, and croscarmellose. The blend is lubricated with magnesium stearate and compressed. […] Indeed, Tmax for an IR remogliflozin etabonate oral dosage form according to the invention occurs at 1 hour, or less, following ingestion of the dosage form by a subject.

[3] = TIA mice, 0.03% in diet for 7 weeks, vs untreated TIA mice, 11 weeks

In the case of `CCOC(=O)OC[C@H]1O[C@@H](Oc2nn(C(C)C)c(C)c2Cc2ccc(OC(C)C)cc2)[C@H](O)[C@@H](O)[C@@H]1O` [remogliflozin etabonate, 5-methyl-4-[4-(1-methylethoxy)benzyl]-1-(1-methylethyl)-1H-pyrazol-3-yl 6-O-(ethoxycarbonyl)-β-D-glucopyranoside], the “inflammation at the interface between the hepatic parenchyma and the portal tracts (interface hepatitis)” value [1, 3] is reported as “reduces; also recorded: less inflammation at the interface between the hepatic parenchyma and the portal tracts”, the “proliferation of bile ductules (bile ductular proliferation)” value [1, 3] is reported as “reduces; also recorded: less proliferation of bile ductiles” and the “proliferation of bile ductules (bile ductular proliferation)” value ([1]; TIA mice, 0.03% in diet for 7 weeks, vs untreated TIA mice, 11 weeks, listed as Remo) is reported as “decrease in proliferation of bile ductules”. For the same molecule, the “development and progression of liver and biliary disease” value ([1]; TIA mice, 0.03% remogliflozin etabonate in diet for 7 weeks from 4 weeks of age, vs standard diet, H&E liver sections at 11 weeks) was “markedly less development and progression of liver and biliary disease”, the “number of TIA mice that required early euthanasia, Remo group versus control group” value ([1]; TIA mice, 7-week study, euthanasia on >15% body weight loss or rectal prolapse) was “no statistical difference” and the inflammatory cell infiltration ([1]; TIA mice, orally administered in diet) was “reduces”. The “periportal and biliary inflammation” value ([1]; TIA mouse at 11 weeks, 0.03% Remo in chow from 4 weeks of age, H&E liver section) was “decrease in periportal and biliary inflammation” and the “remogliflozin plasma concentration after clearance” value [2] was 40 ng/mL.
